Assay results published in paper PMC9067983, “Identification of highly selective type II kinase inhibitors with chiral peptidomimetic tails” (Journal of Enzyme Inhibition and Medicinal Chemistry, 2022).
Where a SMILES comes first, the peptide text is derived from it. [ ]: non-standard residue; d: D form. The star is where a group is joined. X1 = Cc1ccc(Nc2ncc3c(n2)N(C)C(=O)N(c2cc(C(=O)*)ccc2C)C3)cn1; Aib = CC(C)(N)C(=O)O

What was measured:
Test in all cases: kinase selectivity profiling
Assay type in all cases: biochemical
Conditions in all cases: 10µM ATP, read-out: % inhibition (relative to DMSO)
[1] = biological target: T1, Haspin (Homo sapiens, UniProt Q8TF76)
T1 construct: purchased Reaction Biology Corp
Procedure: (§1) Full panel kinase profiling and kinase IC50 measurement were performed by using Reaction Biology Corp. (San Diego, USA).

[2] = biological target: T2, PKG2/PRKG2 (Homo sapiens, UniProt Q13237)
T2 construct: purchased Reaction Biology Corp
T2 sequence (Q13237 whole entry): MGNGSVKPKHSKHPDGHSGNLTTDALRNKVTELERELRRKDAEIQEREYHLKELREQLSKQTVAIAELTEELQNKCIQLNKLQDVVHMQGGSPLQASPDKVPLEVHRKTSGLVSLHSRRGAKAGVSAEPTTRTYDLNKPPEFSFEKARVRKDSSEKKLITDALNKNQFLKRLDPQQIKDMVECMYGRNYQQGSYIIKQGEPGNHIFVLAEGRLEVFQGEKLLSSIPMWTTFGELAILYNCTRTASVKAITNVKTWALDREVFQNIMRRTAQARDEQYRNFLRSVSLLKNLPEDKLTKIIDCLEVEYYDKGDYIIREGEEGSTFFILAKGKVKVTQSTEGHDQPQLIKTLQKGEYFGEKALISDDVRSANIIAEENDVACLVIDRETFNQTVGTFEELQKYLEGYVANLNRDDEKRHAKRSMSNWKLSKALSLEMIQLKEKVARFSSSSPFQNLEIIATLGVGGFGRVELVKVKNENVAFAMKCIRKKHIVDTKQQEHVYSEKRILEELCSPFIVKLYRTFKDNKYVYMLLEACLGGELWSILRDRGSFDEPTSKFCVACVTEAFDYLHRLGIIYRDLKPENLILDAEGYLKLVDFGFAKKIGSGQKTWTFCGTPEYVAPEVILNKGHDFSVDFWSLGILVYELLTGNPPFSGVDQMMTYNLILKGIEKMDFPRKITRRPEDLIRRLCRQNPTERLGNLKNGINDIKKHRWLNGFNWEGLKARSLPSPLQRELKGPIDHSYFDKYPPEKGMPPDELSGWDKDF
Procedure: as §1

[3] = biological target: T3, PKG1a (Homo sapiens, UniProt Q13976)
T3 construct: purchased Reaction Biology Corp
Procedure: as §1

[4] = biological target: T4, MKK6 (Homo sapiens, UniProt P52564)
T4 construct: purchased Reaction Biology Corp
T4 sequence (P52564 whole entry): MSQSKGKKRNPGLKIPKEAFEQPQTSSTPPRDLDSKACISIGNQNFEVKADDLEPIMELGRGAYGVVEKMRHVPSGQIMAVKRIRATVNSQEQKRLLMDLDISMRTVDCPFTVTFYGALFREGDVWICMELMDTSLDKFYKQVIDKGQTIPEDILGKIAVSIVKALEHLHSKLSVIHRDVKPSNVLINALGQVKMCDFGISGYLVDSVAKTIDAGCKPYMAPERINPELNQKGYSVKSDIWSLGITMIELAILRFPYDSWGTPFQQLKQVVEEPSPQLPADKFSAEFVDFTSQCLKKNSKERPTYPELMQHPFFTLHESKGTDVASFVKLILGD
Procedure: as §1

[5] = biological target: T5, PKCb1 (Homo sapiens, UniProt P05771)
T5 construct: purchased Reaction Biology Corp
Procedure: as §1

[6] = biological target: T6, DDR2 (Homo sapiens, UniProt Q16832)
T6 construct: purchased Reaction Biology Corp
Procedure: as §1

[7] = biological target: T7, FER (Homo sapiens, UniProt P16591)
T7 construct: purchased Reaction Biology Corp
Procedure: as §1

[8] = biological target: T8, EPHB2 (Homo sapiens, UniProt P29323)
T8 construct: purchased Reaction Biology Corp
Procedure: as §1

[9] = biological target: T9, c-Kit (Homo sapiens, UniProt P10721)
T9 construct: purchased Reaction Biology Corp
Procedure: as §1

[10] = biological target: T10, NEK3 (Homo sapiens, UniProt P51956)
T10 construct: purchased Reaction Biology Corp
Procedure: as §1

[11] = biological target: T11, EPHA8 (Homo sapiens, UniProt P29322)
T11 construct: purchased Reaction Biology Corp
Procedure: as §1

[12] = biological target: T12, PIM2 (Homo sapiens, UniProt Q9P1W9)
T12 construct: purchased Reaction Biology Corp
Procedure: as §1

[13] = biological target: T13, STK39/STLK3 (Homo sapiens, UniProt Q9UEW8)
T13 construct: purchased Reaction Biology Corp
Procedure: as §1

[14] = biological target: T14, MLCK/MYLK (Homo sapiens, UniProt Q15746)
T14 construct: purchased Reaction Biology Corp
T14 sequence (Q15746 whole entry): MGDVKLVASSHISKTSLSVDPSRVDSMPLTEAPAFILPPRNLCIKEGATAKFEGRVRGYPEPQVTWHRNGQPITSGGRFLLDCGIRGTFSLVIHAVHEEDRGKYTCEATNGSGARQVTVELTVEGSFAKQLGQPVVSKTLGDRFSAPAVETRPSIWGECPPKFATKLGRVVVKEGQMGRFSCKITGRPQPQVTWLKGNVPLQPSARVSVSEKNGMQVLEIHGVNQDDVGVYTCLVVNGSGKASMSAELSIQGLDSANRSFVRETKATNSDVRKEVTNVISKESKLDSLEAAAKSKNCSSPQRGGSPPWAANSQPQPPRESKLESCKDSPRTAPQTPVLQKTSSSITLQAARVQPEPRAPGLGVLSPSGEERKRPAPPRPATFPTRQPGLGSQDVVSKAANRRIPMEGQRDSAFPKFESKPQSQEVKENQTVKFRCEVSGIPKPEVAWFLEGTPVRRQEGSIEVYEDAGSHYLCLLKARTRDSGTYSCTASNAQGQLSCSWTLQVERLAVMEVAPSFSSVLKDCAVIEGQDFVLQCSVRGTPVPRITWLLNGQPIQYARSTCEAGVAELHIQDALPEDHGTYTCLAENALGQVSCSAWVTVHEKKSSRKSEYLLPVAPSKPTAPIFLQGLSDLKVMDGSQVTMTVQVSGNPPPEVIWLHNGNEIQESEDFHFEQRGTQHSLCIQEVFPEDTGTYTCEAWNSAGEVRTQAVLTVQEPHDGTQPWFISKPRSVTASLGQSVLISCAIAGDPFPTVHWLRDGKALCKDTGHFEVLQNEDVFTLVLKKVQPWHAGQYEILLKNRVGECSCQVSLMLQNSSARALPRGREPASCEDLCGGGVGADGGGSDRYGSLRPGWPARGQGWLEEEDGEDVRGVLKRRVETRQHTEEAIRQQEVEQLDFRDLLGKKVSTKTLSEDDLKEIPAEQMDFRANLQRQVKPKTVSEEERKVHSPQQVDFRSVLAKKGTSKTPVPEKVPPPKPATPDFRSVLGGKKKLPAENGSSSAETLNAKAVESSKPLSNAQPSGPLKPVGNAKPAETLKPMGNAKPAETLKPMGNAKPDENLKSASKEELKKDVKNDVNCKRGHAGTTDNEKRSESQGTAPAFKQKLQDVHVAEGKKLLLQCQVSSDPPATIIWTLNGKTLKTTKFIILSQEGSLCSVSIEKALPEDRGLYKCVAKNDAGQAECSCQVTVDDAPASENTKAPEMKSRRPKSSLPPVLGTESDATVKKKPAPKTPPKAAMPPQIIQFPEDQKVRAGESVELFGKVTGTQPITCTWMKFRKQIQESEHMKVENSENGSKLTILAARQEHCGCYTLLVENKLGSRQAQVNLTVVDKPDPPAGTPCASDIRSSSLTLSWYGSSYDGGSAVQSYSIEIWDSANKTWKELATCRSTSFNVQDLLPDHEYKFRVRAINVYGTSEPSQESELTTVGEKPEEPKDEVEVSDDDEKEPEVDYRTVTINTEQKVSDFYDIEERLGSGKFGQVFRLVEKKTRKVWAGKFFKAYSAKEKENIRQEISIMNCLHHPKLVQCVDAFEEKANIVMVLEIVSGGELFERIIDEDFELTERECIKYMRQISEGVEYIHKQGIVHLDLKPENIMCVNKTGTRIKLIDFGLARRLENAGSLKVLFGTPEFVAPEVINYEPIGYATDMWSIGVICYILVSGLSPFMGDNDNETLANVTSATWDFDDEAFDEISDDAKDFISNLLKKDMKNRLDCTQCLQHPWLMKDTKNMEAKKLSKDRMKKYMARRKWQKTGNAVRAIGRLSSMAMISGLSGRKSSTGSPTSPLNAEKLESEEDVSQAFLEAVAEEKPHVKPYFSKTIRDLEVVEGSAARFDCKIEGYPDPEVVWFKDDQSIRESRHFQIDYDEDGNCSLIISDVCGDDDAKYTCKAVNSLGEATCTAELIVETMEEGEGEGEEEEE
Procedure: as §1

[15] = biological target: T15, CK1g2 (Homo sapiens, UniProt P78368)
T15 construct: purchased Reaction Biology Corp
Procedure: as §1

[16] = biological target: T16, CDK19/cyclin C (Homo sapiens, UniProt Q9BWU1)
T16 construct: purchased Reaction Biology Corp
Procedure: as §1

[17] = biological target: T17, NEK8 (Homo sapiens, UniProt Q86SG6)
T17 construct: purchased Reaction Biology Corp
Procedure: as §1

[18] = biological target: T18, CLK4 (Homo sapiens, UniProt Q9HAZ1)
T18 construct: purchased Reaction Biology Corp
Procedure: as §1

[19] = biological target: T19, STK21/CIT (Homo sapiens, UniProt O14578)
T19 construct: purchased Reaction Biology Corp
T19 sequence (O14578 whole entry): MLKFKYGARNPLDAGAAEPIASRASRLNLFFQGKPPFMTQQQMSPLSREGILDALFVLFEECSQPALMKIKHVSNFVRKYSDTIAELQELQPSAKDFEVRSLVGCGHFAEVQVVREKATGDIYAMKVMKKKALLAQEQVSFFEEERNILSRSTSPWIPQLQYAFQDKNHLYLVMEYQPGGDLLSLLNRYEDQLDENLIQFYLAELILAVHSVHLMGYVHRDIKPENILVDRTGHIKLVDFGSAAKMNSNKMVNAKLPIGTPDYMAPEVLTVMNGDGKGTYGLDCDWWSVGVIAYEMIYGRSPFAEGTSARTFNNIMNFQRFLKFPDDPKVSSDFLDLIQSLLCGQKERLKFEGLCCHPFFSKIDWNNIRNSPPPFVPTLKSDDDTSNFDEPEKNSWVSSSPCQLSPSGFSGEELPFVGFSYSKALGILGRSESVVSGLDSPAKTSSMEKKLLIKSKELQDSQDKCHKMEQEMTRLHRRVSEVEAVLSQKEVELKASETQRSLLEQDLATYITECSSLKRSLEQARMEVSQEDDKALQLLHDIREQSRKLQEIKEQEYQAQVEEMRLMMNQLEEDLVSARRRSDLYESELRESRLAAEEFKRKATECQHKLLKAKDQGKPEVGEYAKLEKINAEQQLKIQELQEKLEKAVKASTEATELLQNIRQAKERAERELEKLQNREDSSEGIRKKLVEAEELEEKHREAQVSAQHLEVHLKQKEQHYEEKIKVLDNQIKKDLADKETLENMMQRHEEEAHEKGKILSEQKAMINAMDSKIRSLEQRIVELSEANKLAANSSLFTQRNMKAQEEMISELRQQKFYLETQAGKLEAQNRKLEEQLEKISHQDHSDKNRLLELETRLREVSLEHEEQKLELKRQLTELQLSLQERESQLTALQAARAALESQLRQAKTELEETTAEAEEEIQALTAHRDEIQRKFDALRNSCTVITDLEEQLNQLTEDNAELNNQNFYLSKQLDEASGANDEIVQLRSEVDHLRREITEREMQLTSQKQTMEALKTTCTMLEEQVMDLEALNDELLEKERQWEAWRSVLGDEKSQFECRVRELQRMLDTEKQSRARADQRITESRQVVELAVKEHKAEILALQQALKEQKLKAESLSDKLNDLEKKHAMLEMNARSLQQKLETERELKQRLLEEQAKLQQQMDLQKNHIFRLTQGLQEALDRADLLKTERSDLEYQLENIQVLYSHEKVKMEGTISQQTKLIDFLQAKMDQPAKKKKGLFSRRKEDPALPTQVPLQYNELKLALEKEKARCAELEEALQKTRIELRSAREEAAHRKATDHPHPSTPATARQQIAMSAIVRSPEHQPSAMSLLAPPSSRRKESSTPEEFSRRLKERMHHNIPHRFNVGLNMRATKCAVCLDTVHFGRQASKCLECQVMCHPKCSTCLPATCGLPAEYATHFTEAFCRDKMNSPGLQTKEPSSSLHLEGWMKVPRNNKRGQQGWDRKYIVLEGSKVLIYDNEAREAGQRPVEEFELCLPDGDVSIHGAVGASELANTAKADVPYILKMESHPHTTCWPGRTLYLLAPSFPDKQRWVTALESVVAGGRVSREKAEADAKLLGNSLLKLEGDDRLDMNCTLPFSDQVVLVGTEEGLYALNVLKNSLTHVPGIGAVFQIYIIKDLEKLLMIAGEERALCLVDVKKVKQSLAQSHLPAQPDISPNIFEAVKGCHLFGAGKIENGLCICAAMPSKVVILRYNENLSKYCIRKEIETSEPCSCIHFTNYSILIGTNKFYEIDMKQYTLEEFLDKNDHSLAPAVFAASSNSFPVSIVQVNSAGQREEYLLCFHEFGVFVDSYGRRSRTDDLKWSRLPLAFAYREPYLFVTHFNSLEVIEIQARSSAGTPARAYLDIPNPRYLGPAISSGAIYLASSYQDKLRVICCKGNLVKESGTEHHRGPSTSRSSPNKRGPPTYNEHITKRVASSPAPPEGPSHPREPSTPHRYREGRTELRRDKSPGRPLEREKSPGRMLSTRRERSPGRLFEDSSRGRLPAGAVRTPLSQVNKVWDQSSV
Procedure: as §1

[20] = biological target: T20, FGFR2 (Homo sapiens, UniProt P21802)
T20 construct: purchased Reaction Biology Corp
Procedure: as §1

[21] = biological target: T21, CDK7/cyclin H (Homo sapiens, UniProt P50613)
T21 construct: purchased Reaction Biology Corp
Procedure: as §1

[22] = biological target: T22, ZAP70 (Homo sapiens, UniProt P43403)
T22 construct: purchased Reaction Biology Corp
Procedure: as §1

## Cc1ccc(Nc2ncc3c(n2)N(C)C(=O)N(c2cc(C(=O)N[C@H](C(=O)N4CCC[C@H]4C(=O)NC(C)(C)C(=O)N[C@@H](CC(C)C)C(=O)N(C)C)C(C)C)ccc2C)C3)cn1 [7a, (S)-N-(1-(((S)-1-(dimethylamino)-4-methyl-1-oxopentan-2-yl)amino)-2-methyl-1-oxopropan-2-yl)-1-((4-methyl-3-(1-methyl-7-((6-methylpyridin-3-yl)amino)-2-oxo-1,4-dihydropyrimido[4,5-d]pyrimidin-3(2H)-yl)benzoyl)-L-valyl)pyrrolidine-2-carboxamide] (X1-VP[Aib]L-NMe2)
[1]
  inhibition at 1 µM: 1%
[2]
  inhibition at 1 µM: 11%
[3]
  inhibition at 1 µM: 0%
[4]
  inhibition at 1 µM: 8%
[5]
  inhibition at 1 µM: 4%
[6]
  inhibition at 1 µM: 58%
[7]
  inhibition at 1 µM: 0%
[8]
  inhibition at 1 µM: 29%
[9]
  inhibition at 1 µM: 27%
[10]
  inhibition at 1 µM: 0%
[11]
  inhibition at 1 µM: 0%
[12]
  inhibition at 1 µM: 0%
[13]
  inhibition at 1 µM: 0%
[14]
  inhibition at 1 µM: 0%
[15]
  inhibition at 1 µM: 2%
[16]
  inhibition at 1 µM: 0%
[17]
  inhibition at 1 µM: 1%
[18]
  inhibition at 1 µM: 0%
[19]
  inhibition at 1 µM: 0%
[20]
  inhibition at 1 µM: 12%
[21]
  inhibition at 1 µM: 3%
[22]
  inhibition at 1 µM: 0%
